Data published in publication PMC10772362 (RSC Advances, 2024).
Where “and” joins values, the source holds several entries; their conditions need not be identical. Equal entries are not always repeated.

How the values were obtained:
[1] = test system: A549 (human lung adenocarcinoma) cell line; assay: MTT cytotoxicity assay, A549 cells; conditions: for IC50: Homo sapiens, A549, 72 h, read-out: IC50, A549; for Selective index, A549: ratio IC50 in Hek-293 to IC50 in A549
[2] = test system: KB (human mouth epidermal carcinoma) cell line; assay: MTT cytotoxicity assay, KB cells; conditions: for IC50: Homo sapiens, KB, 72 h, read-out: IC50, KB; for Selective index, KB: ratio IC50 in Hek-293 to IC50 in KB
[3] = test system: HepG2 (human hepatocellular carcinoma) cell line; assay: MTT cytotoxicity assay, HepG2 cells; conditions: for IC50: Homo sapiens, HepG2, 72 h, read-out: IC50, HepG2; for Selective index, HepG2: ratio IC50 in Hek-293 to IC50 in HepG2
[4] = test system: Hek-293 (human embryonic kidney 293) cell line; assay: MTT cytotoxicity assay, normal Hek-293 cells; conditions: HEK293, 72 h, read-out: IC50, Hek-293
[5] = test system: MCF7 (human breast adenocarcinoma) cell line; assay: MTT cytotoxicity assay, MCF7 cells; conditions: for IC50: Homo sapiens, MCF7, 72 h, read-out: IC50, MCF7; for Selective index, MCF7: ratio IC50 in Hek-293 to IC50 in MCF7
[6] = test system: KB, A549, and HepG2 cell lines; assay: MTT cytotoxicity assay, summary over KB, A549 and HepG2; conditions: Homo sapiens, read-out: IC50 values ranging over KB, A549, and HepG2 cell lines

Row | SMILES | IC50 [1] | Selective index, A549 [1] | IC50 [2] | Selective index, KB [2] | IC50 [3] | Selective index, HepG2 [3] | IC50 [4] | IC50 [5] | Selective index, MCF7 [5] | fold higher toxicity when compared with ellipticine, KB [2] | fold higher toxicity when compared with ellipticine, HepG2 [3] | IC50 [6]
1 | O=C1OCC2=C1C(c1ccsc1)C1=C(N2)C(=O)c2ccccc2C1=O (stereo not drawn) [Compound 13a, 11-(Thiophen-3-yl)-4,11-dihydrobenzo[g]furo[3,4-b]quinolin-1,5,10(3H)-trione] | 0.48 ± 0.03 µM | 47.90 | 1.43 ± 0.14 µM | 16.00 | 1.43 ± 0.15 µM | 16.00 | 22.9 ± 2.18 µM | 2.06 ± 0.66 µM | 11.12 | – | – | –
2 | O=C1OCC2=C1C(c1ccoc1)C1=C(N2)C(=O)c2ccccc2C1=O (stereo not drawn) [Compound 13b, 11-(Furan-3-yl)-4,11-dihydrobenzo[g]furo[3,4-b]quinolin-1,5,10(3H)-trione] | 3.09 ± 0.39 µM | 4.47 | 10.1 ± 1.17 µM | 1.37 | 12.4 ± 1.29 µM | 1.12 | 13.8 ± 1.41 µM | 12.6 ± 1.14 µM | 1.09 | – | – | –
3 | O=C1OCC2=C1C(c1ccco1)C1=C(N2)C(=O)c2ccccc2C1=O (stereo not drawn) [Compound 13c, 11-(Furan-2-yl)-4,11-dihydrobenzo[g]furo[3,4-b]quinolin-1,5,10(3H)-trione] | 3.06 ± 0.27 µM | 4.75 | 14.2 ± 1.23 µM | 1.02 | 3.75 ± 0.69 µM | 3.88 | 14.6 ± 1.35 µM | 12.2 ± 1.14 µM | 1.20 | – | – | –
4 | O=C1OCC2=C1C(c1ccc(Br)o1)C1=C(N2)C(=O)c2ccccc2C1=O (stereo not drawn) [Compound 13d, 11-(5-Bromofuran-2-yl)-4,11-dihydrobenzo[g]furo[3,4-b]quinolin-1,5,10(3H)-trione] | 2.06 ± 0.22 µM | 18.00 | 2.81 ± 0.32 µM | 13.19 | 0.3 ± 0.06 µM | 122 and 122.40 | 37.1 ± 3.3 µM | 10.4 ± 1.29 µM | 3.58 | – | – | –
5 | O=C1OCC2=C1C(c1csc3ccccc13)C1=C(N2)C(=O)c2ccccc2C1=O (stereo not drawn) [Compound 13e, 11-(Benzo[b]thiophen-3-yl)-4,11-dihydrobenzo[g]furo[3,4-b]quinolin-1,5,10(3H)-trione] | 9.94 ± 0.73 µM | 1.12 | 10.9 ± 1.4 µM | 1.02 | 10.4 ± 1.18 µM | 1.07 | 11.2 ± 0.85 µM | 13.1 ± 1.6 µM | 0.85 | – | – | –
6 | O=C1OCC2=C1C(c1coc3ccccc13)C1=C(N2)C(=O)c2ccccc2C1=O (stereo not drawn) [Compound 13f, 11-(Benzofuran-3-yl)-4,11-dihydrobenzo[g]furo[3,4-b]quinolin-1,5,10(3H)-trione] | 7.02 ± 0.91 µM | 2.81 | 1.1 ± 0.09 µM | 17.98 | 1.3 ± 0.13 µM | 15.10 | 19.7 ± 1.7 µM | 12.7 ± 1.2 µM | 1.56 | ~1.8 fold | ~1.8 fold | –
7 | O=C1OCC2=C1C(c1cc3ccccc3s1)C1=C(N2)C(=O)c2ccccc2C1=O (stereo not drawn) [Compound 13g, 11-(Benzo[b]thiophen-2-yl)-4,11-dihydrobenzo[g]furo[3,4-b]quinolin-1,5,10(3H)-trione] | 3.13 ± 0.2 µM | 4.18 | 9.94 ± 0.65 µM | 1.31 | 12.7 ± 1.4 µM | 1.03 | 13.1 ± 1.7 µM | 11.3 ± 1.78 µM | 1.16 | – | – | –
8 | O=C1OCC2=C1C(c1cnc(Cl)s1)C1=C(N2)C(=O)c2ccccc2C1=O (stereo not drawn) [Compound 13h, 11-(2-Chlorothiazol-5-yl)-4,11-dihydrobenzo[g]furo[3,4-b]quinolin-1,5,10(3H)-trione] | 0.16 ± 0.02 µM | 8.55 | 1.12 ± 0.1 µM | 1.23 | 0.81 ± 0.11 µM | 1.71 | 1.38 ± 0.18 µM | 1.07 ± 0.1 µM | 1.29 | – | – | –
9 | Cc1c(C2C3=C(COC3=O)NC3=C2C(=O)c2ccccc2C3=O)cnn1C (stereo not drawn) [Compound 13i, 11-(1,5-Dimethyl-1H-pyrazol-4-yl)-4,11-dihydrobenzo[g]furo[3,4-b]quinolin-1,5,10(3H)-trione] | 2.27 ± 0.22 µM | 5.40 | 10.7 ± 1.27 µM | 1.14 | 7.8 ± 0.53 µM | 1.57 | 12.3 ± 1.13 µM | 10.4 ± 0.8 µM | 1.18 | – | – | –
10 | O=C1OCC2=C1C(c1ccn[nH]1)C1=C(N2)C(=O)c2ccccc2C1=O (stereo not drawn) [Compound 13j, 11-(1H-pyrazol-5-yl)-4,11-dihydrobenzo[g]furo[3,4-b]quinolin-1,5,10(3H)-trione] | 5.43 ± 0.39 µM | 0.69 | 6 ± 0.63 µM | 0.63 | 4.35 ± 0.57 µM | 0.86 | 3.75 ± 0.69 µM | 3.24 ± 0.36 µM | 1.16 | – | – | –
11 | COc1cc(C2C3=C(COC3=O)NC3=C2C(=O)c2ccccc2C3=O)ccn1 (stereo not drawn) [Compound 13k, 11-(2-Methoxypyridin-4-yl)-4,11-dihydrobenzo[g]furo[3,4-b]quinolin-1,5,10(3H)-trione] | 0.27 ± 0.21 µM | 9.30 | 0.27 ± 0.24 µM | 9.30 | 0.23 ± 0.02 µM | 10.81 | 2.48 ± 0.32 µM | 1.34 ± 0.16 µM | 1.86 | – | – | 0.23 to 0.27 µM
12 | O=C1OCC2=C1C(c1ncccc1F)C1=C(N2)C(=O)c2ccccc2C1=O (stereo not drawn) [Compound 13l, 11-(3-Fluoropyridin-2-yl)-4,11-dihydrobenzo[g]furo[3,4-b]quinolin-1,5,10(3H)-trione] | 2.15 ± 0.25 µM | 4.74 | 4.69 ± 0.58 µM | 2.18 | 5.52 ± 0.86 µM | 1.85 | 10.2 ± 1.24 µM | 7.34 ± 0.94 µM | 1.39 | – | – | –
13 | COc1ncc(C(F)(F)F)cc1C1C2=C(COC2=O)NC2=C1C(=O)c1ccccc1C2=O (stereo not drawn) [Compound 13m, 11-(2-Methoxy-5-(trifluoromethyl)pyridin-3-yl)-4,11-dihydrobenzo[g]furo[3,4-b]quinolin-1,5,10(3H)-trione] | 2.83 ± 0.54 µM | 5.92 | 4.63 ± 1.04 µM | 3.61 | 5.83 ± 0.86 µM | 2.87 | 16.7 ± 1.94 µM | 7.26 ± 1.29 µM | 2.31 | – | – | –
14 | Cc1c2ccncc2c(C)c2c1[nH]c1ccccc12 [Ellipticine, ellipticine, reference compound] | 1.42 ± 0.08 µM | 3.94 | 1.95 ± 0.12 µM | 2.88 | 2.11 ± 0.16 µM | 2.65 | 5.6 ± 0.37 µM | 2.09 ± 0.16 µM | 2.68 | – | – | –
